Test results reported in paper PMC5812247, “Engineering thermal stability and solvent tolerance of the soluble quinoprotein PedE from Pseudomonas putida KT2440 with a heterologous whole‐cell screening approach” (Microbial Biotechnology, 2017).

Biological target: T1, PedE (Pseudomonas putida, UniProt Q88JH5)
T1 construct: C-terminal 6xHis tag, expressed in E. coli BL21(DE3), purified by IMAC, PQQ/Ca2+-dependent periplasmic enzyme
T1 sequence (Q88JH5 34-631): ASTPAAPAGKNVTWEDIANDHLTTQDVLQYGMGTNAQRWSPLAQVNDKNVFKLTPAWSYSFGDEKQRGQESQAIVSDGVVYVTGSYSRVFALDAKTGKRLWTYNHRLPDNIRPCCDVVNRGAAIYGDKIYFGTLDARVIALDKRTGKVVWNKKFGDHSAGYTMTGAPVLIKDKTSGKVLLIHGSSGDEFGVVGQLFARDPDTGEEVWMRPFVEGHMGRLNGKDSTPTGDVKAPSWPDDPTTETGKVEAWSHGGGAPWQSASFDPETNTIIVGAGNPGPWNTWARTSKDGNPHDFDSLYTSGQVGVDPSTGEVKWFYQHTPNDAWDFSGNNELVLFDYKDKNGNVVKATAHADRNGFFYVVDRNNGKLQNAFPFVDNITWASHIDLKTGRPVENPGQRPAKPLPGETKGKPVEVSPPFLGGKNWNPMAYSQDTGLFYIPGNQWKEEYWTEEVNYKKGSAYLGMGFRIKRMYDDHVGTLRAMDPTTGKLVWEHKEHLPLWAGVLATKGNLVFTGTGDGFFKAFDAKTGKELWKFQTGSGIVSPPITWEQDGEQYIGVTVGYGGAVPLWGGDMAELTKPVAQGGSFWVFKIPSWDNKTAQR
Assay: residual activity after […] h at […]°C, apo vs PQQ/CaCl2-reconstituted enzyme
Assay type: biochemical
Details: reconstitution with 10 μM PQQ and 10 mM CaCl2, Tris pH 7.5; ethanol 10 mM as substrate

## O=C(O)c1cc(C(=O)O)c2c(n1)C(=O)C(=O)c1cc(C(=O)O)[nH]c1-2 [PQQ]
  residual activity after 1 h at 45°C, apo vs PQQ/CaCl2-reconstituted enzyme: purified apo‐form of PedE is much less thermostable compared with the PQQ reconstituted form
